Key:
[1] = Tolerability (survival, body weight) in Hepa1–6-bearing C57Bl/6 mice (Experiments 3 and 4); format: in vivo; conditions: Experiment 4 (FY26⋅Cl)
Method: (§1) Male CD1-Foxn1^nu or C57Bl/6 (B6) mice aged 5–10 weeks (Janvier, Le Genest St Isle, France) were housed in groups of three to four mice per cage in temperature-controlled (23 ± 1°C), ventilated (100 ± 10 l/min), and light-tight chronobiological animal facilities (Eurobioconcept, Bonneuil s/Marne, France). They were synchronized with an alternation of 12 h of light (L) and 12 h of darkness (D) (LD12:12), with light starting at 07:00, and had ad libitum access to food and water throughout all the experiments. In line with convention, onset of light and that of darkness are referred to as Zeitgeber time 0 (ZT0) and ZT12, respectively. After one or more weeks on this regimen and on the day prior to tumour inoculation, both flanks of each B6 mouse were shaved using clippers.
(§2) The mice, aged 8–10 weeks, were anesthetized under isoflurane and Hepa1–6-Per2-luc cells were injected subcutaneously in both postero-lateral flanks of each mouse. Mice were then inspected and weighed daily until experiment completion. Tumour sites were inspected daily until tumours became palpable and amenable to daily measurements of perpendicular diameters using callipers. Measurements were always taken at the same circadian time.
(§3) Mean daily tumour weight per mouse was calculated as the average volume of the right and left flank tumours according to (L × W^2)/2, where L is the larger and W the smaller perpendicular diameter, and 1 cm^3 corresponds to 1 g. Mice with an estimated tumour weight exceeding 10% of their body weight or those in poor general condition or loosing >15% of their starting body weight were euthanized, in compliance with our Home Office Project Licence specifications approved by the Animals in Science Committee and Animal Welfare and Ethical Review Body.
Experiment 3 aimed at assessing the efficacy and tolerability of the more soluble formulation of FY26⋅Cl in Hepa1–6-bearing C57Bl/6 mice. The mice were randomized to receive vehicle or FY26⋅Cl, at a cumulative dose of 60 mg/kg. Treated mice received ip injections of 20 mg/kg of FY26⋅Cl at ZT6 12, 14, and 17 days after tumour inoculation. Control mice received ip vehicle on the same days.
Experiment 4 aimed at confirming efficacy and optimizing timing and scheduling of the same cumulative dose of 60 mg/kg of FY26⋅Cl. Mice were randomized to receive either vehicle or FY26⋅Cl as four injections of 15 mg/kg at ZT6 or ZT18 on days 11, 14, 17, and 21.
For Experiments 1 and 2, FY26⋅PF6 was diluted in the vehicle, composed of 1% Tween 80 (Sigma-Aldrich, Gillingham, UK), 5% DMSO (Corning, New York, USA) and 94% of 0.9% saline (Prep room, Life Sciences, University of Warwick) under laminar flow. FY26⋅PF6 concentration was confirmed with ICP-MS. For Experiments 3–5, using FY26⋅Cl, a stock solution of 50 mg/ml FY26⋅Cl was prepared in 0.9% saline on the day of injection and diluted as required; the vehicle consisted of 0.9% saline.
(§4) Body weight data were expressed as % body weight measured on the first treatment day. Tumour weights for individually treated mice were expressed as % of the median control values, in order to determine % inhibition. Mean and standard error or median and interquartiles were computed for the different treatment groups and experimental conditions, i.e. drug timing and day of assessment. Groups were compared using parametric or non-parametric ANOVAs, respectively.

[2] = Body weight change after a single ip dose (Experiment 5); format: in vivo, C57Bl/6 mice; conditions: single ip dose 5, 10 or 20 mg/kg (FY26⋅Cl), 24 and 48 h, all mice
Method: (§5) Experiment 5 determined FY26⋅Cl uptake in mouse tumour and liver. Hepa1–6-bearing mice were randomly assigned to either treatment or control groups. They received a single ip injection of 5, 10, or 20 mg/kg of FY26⋅Cl or 0.1 M PBS (vehicle) at ZT6 (Table 1). The mice from pre-set subgroups were culled at 6, 24, or 48 h after injection. The subcutaneous tumours in both flanks, as well as liver, spleen, one kidney, an ileum, and a colon segment and brain were sampled and stored at −80°C.
as §4

[3] = tested on: Hepa1–6-Per2-luc hepatocarcinoma tumours; assay: Tumour volume after a single ip dose (Experiment 5); format: in vivo, C57Bl/6 mice; conditions: single ip dose 5, 10 or 20 mg/kg (FY26⋅Cl)
Method: as §2, §3
as §5, with “The subcutaneous tumours in both flanks, as well as liver, spleen, one kidney, an ileum, and a colon segment and brain were sampled and stored at −80°C.” left out

[4] = parameters: method as in PMID 20977192; conditions: 24 h incubation at 37°C, pH 7.4 ref 12; cited from earlier work
[5] = parameters: method as in ref 22 = [22]; 22. Abraham K. , In vitro and in vivo chronopharmacology of a new generation of an organometallic anticancer drug complex . Ph.D. thesis , University of Warwick , Coventry, UK , 2018 .; conditions: mice ref 22; cited from earlier work
[6] = Comparative maximum aqueous solubility study (ICP-OES); format: physicochemical; conditions: doubly deionized water, 24 h shaking, ambient 18–20°C, mean ± SD of N = 3
Method: One to five milligrams of FY26⋅PF6 or FY26⋅I, and 180 mg of FY26⋅Cl were dispensed into Falcon tubes in triplicates, then 1 ml of doubly deionized water (DDIW) was added. The Falcon tubes were placed on a Vibrax VXB basic shaker (Sigma-Aldrich, Dorset, UK) for 24 h at a speed of […] (ambient temperature 18–20°C), and were checked at intervals (further solids were added if total saturation appeared to occur). The samples were filtered through syringe filters (PTFE, 0.45 µm, 4 mm) to remove any undissolved solids. The concentrations of Os in the solutions were measured using inductively coupled plasma-optical emission spectroscopy (ICP-OES) (Agilent, Stockport, UK).
Analyses of FY26 solutions were carried out on a Perkin-Elmer (optical emission spectrometer) Optima 5300 DV instrument. All samples and standards were prepared fresh on the day in DDIW with distilled HNO3 (3.2%), thiourea (5 mM), and ascorbic acid (0.1 g/l). The osmium standard was diluted to the following concentrations for the calibration curve: 0, 25, 50, 100, 200, 400, 600, 800, and 1000 ppb. The samples were diluted by serial dilutions of typically 1 in 10 until their concentrations fitted within the calibration range and % total dissolved solids were below 0.2%. Samples were prepared in triplicates and the Os optical emissions at 228.226 and 225.585 nm were detected and integrated.

[7] = tested on: Hepa1–6-Per2-luc hepatocarcinoma tumours; assay: Antitumour efficacy in Hepa1–6-bearing nude mice (Experiments 1 and 2); format: in vivo, CD1-Foxn1^nu mice
Method: as §1
Mouse hepatocarcinoma (Hepa1–6, ATCC® CRL-1830™) was kindly provided by S. Dulong (INSERM U935, Villejuif, France), following their stable transfection with the Per2-luc [pLV7-Bsd-P(Per2)-dLuc] reporter constructs within the C5SYS ERASYSBIO+ project (FP7). Mouse Hepa1–6-Per2-luc cells were cultured in 15-cm Petri dishes until they reached 80% confluency. On the day of tumour inoculation, the cells were trypsinized and resuspended at a concentration of 10^6 cells/100 µl in PBS solution alone (Experiments 1 and 2) or with 1:1 MatriGel™ (Corning, Flintshire, UK) (Experiments 3–5) and kept on ice until injected.
as §2, §3
Experiment 1 aimed at the determination of a therapeutic dose of the less soluble FY26⋅PF6 formulation. Hepa1–6-bearing nude mice were randomly assigned to be injected intraperitoneally (ip) with vehicle (controls), or 40, 60, or 80 mg/kg/injection of FY26⋅PF6 at ZT6 (in the middle of the light span) every other day for 12 days (Table 1).
Experiment 2 aimed at assessing whether FY26⋅PF6 circadian timing would influence toxicity or efficacy in the nude mouse model. The animals were randomly assigned to receive ip vehicle or FY26⋅PF6 (50 mg/kg/injection) at ZT6 or at ZT18 (four controls and six treated mice per ZT) every other day for 11 days (six injections; cumulative dose, 300 mg/kg). […]
(§6) Body weight data were expressed as % body weight measured on the first treatment day. Tumour weights for individually treated mice were expressed as % of the median control values, in order to determine % inhibition. […]

[8] = Tolerability in Hepa1–6-bearing nude mice (Experiments 1 and 2); format: in vivo, CD1-Foxn1^nu mice
Method: as §1, §2, §3
Experiment 1 aimed at the determination of a therapeutic dose of the less soluble FY26⋅PF6 formulation. […]
as §6

A2780 cells = tested on: A2780 cells; parameters: method as in PMID 26162681; conditions: previously reported ref 18; cited from earlier work
[9] = tested on: 809 cancer cell line screen; parameters: method as in PMID 26162681; conditions: on average, 809 cancer cell lines ref 18; cited from earlier work
[10] = tested on: A2780 ovarian cancer cells over MRC-5 fibroblasts; parameters: method as in PMID 26397305; conditions: applied synergistically with L-buthionine sulfoximine (L-BSO) ref 19; cited from earlier work
Hepa1–6 cells = tested on: Hepa1–6 cells; parameters: method as in ref 21, 22 = [21]; 21. Abraham K. , Dallmann R. , Ballesta A. , Romero-Canelon I. , Sadler P. J. , Lévi F. A. , In v itro circadian synchronisation of mouse hepatocarcinoma cells with 24 h temperature cycles uncovers in || [22]; 22. Abraham K. , In vitro and in vivo chronopharmacology of a new generation of an organometallic anticancer drug complex . Ph.D. thesis , University of Warwick , Coventry, UK , 2018 .; conditions: Hepa1–6 cells synchronized with a 24-h periodic temperature cycle ref 21, 22; cited from earlier work
[11] = tested on: HCT-116 human colon cancer xenografts; parameters: method as in ref 13 = [13]; 13. Shnyder S. D. , Fu Y. , Habtemariam A. , van Rijt S. H. , Cooper P. A. , Loadman P. M. , Sadler P. J. , Anti-colorectal cancer activity of an organometallic osmium arene azopyridine complex , Med.; conditions: HCT-116 xenografts in mice ref 13; cited from earlier work
[12] = parameters: method as in PMID 9144445; conditions: cisplatin in BSO-treated mice ref 36; cited from earlier work

**Q.** With CN(C)c1ccc(N=Nc2ccccn2)cc1.Cc1ccc(C(C)C)cc1.[I-].[Os+2] [FY26, [Os^II(ɳ^6-p-cym)(PhAzPy-NMe2)I]^+] as the compound, how does the “body-weight loss according to dosing time” value ([1]; 15 mg/kg ip × 4, ZT18 versus ZT6) read?
**A.** The value was “clearly worse at ZT18”.

**Q.** What about the survival rate ([1]; 15 mg/kg ip × 4 at ZT6) of the same compound?
**A.** Its survival rate is 60%.

**Q.** What about the survival rate ([1]; 15 mg/kg ip × 4 at ZT18) of the same compound?
**A.** The survival rate was 30%.

**Q.** And the body weight changes [2]?
**A.** The body weight changes was less than 5%.

**Q.** What about the “changes in tumour volumes” value [3] of the same compound?
**A.** The value was “No changes”.

**Q.** What about the “hydrolysis in aqueous solution” value [4] of the same compound?
**A.** Its value is “does not readily hydrolyse”.

**Q.** What about the best-tolerated dosing time [5] of the same compound?
**A.** Its best-tolerated dosing time is “near the middle of the light span”.

**Q.** With CN(C)c1ccc(N=Nc2ccccn2)cc1.Cc1ccc(C(C)C)cc1.[I-].[I-].[Os+2] [FY26⋅I] as the compound, how does the maximum aqueous solubility [6] read?
**A.** Its maximum aqueous solubility is 1.29 (±0.01) mM.

**Q.** Which maximum aqueous solubility [6] does the source give for CN(C)c1ccc(N=Nc2ccccn2)cc1.Cc1ccc(C(C)C)cc1.F[P-](F)(F)(F)(F)F.[I-].[Os+2] [FY26⋅PF6, [Os^II(ɳ^6-p-cym)(PhAzPy-NMe2)I]PF6] here?
**A.** The maximum aqueous solubility was 0.0201 (±0.0007) mM.

**Q.** And the “tumour inhibition efficacy ranking” value ([7]; Experiment 1, 40 mg/kg/injection ip at ZT6 every other day)?
**A.** The value was “intermediate”.

**Q.** And the “tumour inhibition efficacy ranking” value ([7]; Experiment 1, 60 mg/kg/injection ip at ZT6 every other day)?
**A.** The value was “least”.

**Q.** What about the “tumour inhibition efficacy ranking” value ([7]; Experiment 1, 80 mg/kg/injection ip at ZT6 every other day) of the same compound?
**A.** Its value is “highest”.

**Q.** What about the “efficacy according to dosing time” value ([7]; Experiment 2, 50 mg/kg/injection ip, ZT6 versus ZT18) of the same compound?
**A.** The value was “slightly better efficacy at ZT6”.

**Q.** And the tumour growth ([7]; Experiment 2, 50 mg/kg/injection ip, after the sixth dose)?
**A.** Its tumour growth is “slowed down transiently”.

**Q.** What about the “toxicity of the higher dose” value ([8]; Experiment 1, 80 mg/kg/injection, all mice euthanized after up to five injections (cumulative 400 mg/kg)) of the same compound?
**A.** The value was “clearly too toxic”.

**Q.** What about the “body weight loss dose–response” value ([8]; Experiment 1, 40, 60 or 80 mg/kg/injection ip at ZT6) of the same compound?
**A.** Its value is “linear dose–response relation”.

**Q.** What about the “body-weight loss at ZT6 as compared to ZT18” value ([8]; Experiment 2, 50 mg/kg/injection ip) of the same compound?
**A.** The value was “less pronounced”.

**Q.** And the ROS induction (A2780 cells)?
**A.** Its ROS induction is “did induce an increase in ROS”.

**Q.** And the induction of apoptosis (A2780 cells)?
**A.** Its induction of apoptosis is “did not induce apoptosis”.

**Q.** And the “activity relative to cisplatin” value [9]?
**A.** The value was 49 times.

**Q.** And the “selectivity towards A2780 over MRC-5 fibroblasts” value [10]?
**A.** The value was “up to 64 times”.

**Q.** What about the “variation of IC50 according to timing of in vitro drug exposure” value (Hepa1–6 cells) of the same compound?
**A.** Its value is 40%.

**Q.** And the “effect on xenograft growth” value [11]?
**A.** Its value is “capable of delaying the growth”.

**Q.** With N.N.[Cl][Pt][Cl] [cisplatin] as the compound, how does the “reduction in average survival rate” value [12] read?
**A.** The value was 5.7 fold.
